Inhibition zone data for 2 molecules are collected here from patent US11891366B1, “4-methoxy-n′-(2-(5-phenyl-1,3,4-oxadiazol-2-ylthio)acetoxy)benzimidamide as an antimicrobial compound” (KING FAISAL UNIVERSITY, priority 2023, dated 2024).

Common to all, as to format: cell-based
Test [1] deals with Aspergillus flavus. As to the kind of experiment: Agar plate disc-diffusion, antifungal activity (inhibition zone). To be noted: Sabouraud's dextrose agar, 37° C., 72 hours. As for the experimental part: (§1) The agar plate disc-diffusion method was applied. […] The discs were then placed onto the surface of agar plates (nutrient agar for bacteria and Sabouraud's dextrose agar for fungi) seeded with the test organism. Each plate contained 15 mL of the agar medium, previously seeded with 0.2 mL of the broth culture of each organism pregrown for 18 hours. The plates were incubated at 37° C. for 48 hours, and 72 hours for fungi. The inhibition zones were measured in millimeters (mm). Discs impregnated with DMSO were used as a control, and its inhibition zone was subtracted from the tested compound actual inhibition zone.

For test [2], the system named is Chrysosporium keratinophilum. The description is as above. Conditions: Sabouraud's dextrose agar, 37° C., 72 hours. Here is the method:
as §1

The subject of test [3] is Staphylococcus aureus. As to the kind of experiment: Agar plate disc-diffusion, antibacterial activity (inhibition zone). Conditions: nutrient agar, 37° C., 48 hours. Here is the method:
as §1
(In general: In agar diffusion tests the substance spreads into inoculated agar from a disc or well.)

Test [4] relates to Pseudomonas aeruginosa. The description is as above. To be noted: nutrient agar, 37° C., 48 hours. Here is the method:
as §1

Test [5] relates to Escherichia coli. The test is described as above. To be noted: nutrient agar, 37° C., 48 hours. Here is the method: as §1
The test system of test [6] is Bacillus Cereus. The test is described as above. To be noted: nutrient agar, 37° C., 48 hours. Here is the method:
The agar plate disc-diffusion method was applied. Sterilized filter papers (6 mm in diameter) were wetted with 10 μL of a solution 4-methoxy-N′-(2-(5-phenyl-1,3,4-oxadiazol-2-ylthio)acetoxy)benzimidamide (3) to be tested, containing 10 mg/mL in DMSO, and the discs were allowed to air dry. The discs were then placed onto the surface of agar plates (nutrient agar for bacteria and Sabouraud's dextrose agar for fungi) seeded with the test organism. Each plate contained 15 mL of the agar medium, previously seeded with 0.2 mL of the broth culture of each organism pregrown for 18 hours. The plates were incubated at 37° C. for 48 hours, and 72 hours for fungi. The inhibition zones were measured in millimeters (mm). Discs impregnated with DMSO were used as a control, and its inhibition zone was subtracted from the tested compound actual inhibition zone.

Setting [7] is: A = concentration of comp. = 10,000 μL.
The mark [8] stands for this setting: B = concentration of comp. = 30,000 μL.
[9] abbreviates: C = concentration of comp. = 50,000 μL.

On to `O=C(O)c1cn(C2CC2)c2cc(N3CCNCC3)c(F)cc2c1=O` [Cip., ciprofloxacin], for which the inhibition zone in test [1] (setting [7]) was 29 mm; in test [1] (setting [8]), 30 mm; in test [1] (setting [9]), 42 mm; in test [2] (setting [7]), 29 mm; in test [2] (setting [8]), 30 mm; in test [2] (setting [9]), 53 mm. The inhibition zone in test [3] (setting [7]) stood at 43 mm; in test [3] (setting [8]), 44 mm; in test [3] (setting [9]), 53 mm; in test [4] (setting [7]), 29 mm; in test [4] (setting [8]) it was 30 mm; in test [4] (setting [9]), 53 mm. For the same molecule, the inhibition zone came out at 30 mm in test [5] (setting [7]); 39 mm in test [5] (setting [8]); 60 mm in test [5] (setting [9]); 29 mm in test [6] (setting [7]); 30 mm in test [6] (setting [8]); 42 mm in test [6] (setting [9]).
With `COc1ccc(/C(N)=N/OC(=O)CSc2nnc(-c3ccccc3)o2)cc1` [Compound 3, 4-methoxy-N′-(2-(5-phenyl-1,3,4-oxadiazol-2-ylthio)acetoxy)benzimidamide], the inhibition zone in test [1] (setting [7]) amounted to 21 mm; in test [1] (setting [8]) it was 25 mm; in test [1] (setting [9]), 38 mm; in test [2] (setting [7]), 26 mm; in test [2] (setting [8]) it was 28 mm; in test [2] (setting [9]), 41 mm. The inhibition zone in test [3] (setting [7]) came out at 22 mm; in test [3] (setting [8]), 30 mm; in test [3] (setting [9]), 45 mm; in test [4] (setting [7]) it was 23 mm; in test [4] (setting [8]), 28 mm; in test [4] (setting [9]), 41 mm. Besides, the inhibition zone in test [5] (setting [7]) was determined as 26 mm; in test [5] (setting [8]) it was 34 mm; in test [5] (setting [9]) it was 49 mm; in test [6] (setting [7]), 27 mm; in test [6] (setting [8]) it was 29 mm; in test [6] (setting [9]) it was 41 mm.
